Results on 15 compounds are retold here after patent US11472803B2, “7-substituted 1-aryl-naphthyridine-3-carboxylic acid amides and use thereof” (Bayer Aktiengesellschaft, priority 2016, dated 2022).

The term EC50 denotes the concentration giving half of the maximal effect. High values mean lower potency in that assay, low ones higher potency in that assay. One may read the Emax as the greatest response seen or fitted, relative to the assay's reference.

Test [1] has as its target T1, human M2 receptor (Homo sapiens, UniProt P08172).
T1 construct: expressed in transfected cells; host or cells: CHO-DUKX (CHO-DUKX-M2-GIRK)
T1 sequence (P08172 1-466): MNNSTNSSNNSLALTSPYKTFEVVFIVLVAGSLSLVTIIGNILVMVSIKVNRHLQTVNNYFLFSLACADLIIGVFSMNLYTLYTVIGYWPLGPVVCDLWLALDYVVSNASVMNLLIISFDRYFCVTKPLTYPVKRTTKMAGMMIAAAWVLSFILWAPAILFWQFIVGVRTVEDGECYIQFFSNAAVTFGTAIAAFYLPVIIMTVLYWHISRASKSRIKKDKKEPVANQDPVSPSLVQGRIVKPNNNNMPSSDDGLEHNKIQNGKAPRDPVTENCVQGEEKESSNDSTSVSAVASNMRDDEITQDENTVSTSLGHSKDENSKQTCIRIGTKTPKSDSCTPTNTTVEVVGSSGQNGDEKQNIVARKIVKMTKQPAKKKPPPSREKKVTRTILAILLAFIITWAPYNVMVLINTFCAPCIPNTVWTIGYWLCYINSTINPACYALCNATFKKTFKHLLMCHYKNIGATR
The experiment in a line: Functional M2-GIRK1/4 activation test: allosteric potency (EC50) and efficiency at EC20 acetylcholine. The following applies: CHO-DUKX-M2-GIRK cells; for EC50: voltage-sensitive dye, acetylcholine at EC20, in some cases mean of two or more determinations; for Emax / Efficiency: boosting of the acetylcholine effect at EC20 acetylcholine concentration. The format is cell-based. The method in brief: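 CHO-DUKX cells stably expressing human M2 and GIRK1/4; membrane potential tracked with voltage-sensitive dye at room temperature. Compound added 50 s before acetylcholine at its EC20, then hyperpolarization read 60 s. EC50 (allosteric potency) and efficiency (boost of EC20 ACh effect) from 4-parameter Hill fit.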

Test [2] has as its target T1, human M2 receptor. The experiment in a line: Functional M2-GIRK1/4 activation test: positive cooperativity (α factor), shift of acetylcholine dose-response curve. The following applies: Allosteric EC50 shift of acetylcholine 8-point dose-response curve; CHO-DUKX-M2-GIRK cells; α>1 = positive cooperativity. It counts as cell-based. The text has this: The binding of orthosteric agonists (endogenous ligand: acetylcholine) to the M2 receptor leads to receptor activation or a change in conformation of the receptor in the manner of a shift in equilibrium in favour of the active receptor conformation.
The agonist-induced change in conformation of the M2 receptor results in a Gαi protein activation. […] Under physiological conditions, the result is then a selective efflux of potassium from the cell along the electrochemical gradient. […] The extent of hyperpolarization can therefore be regarded as a measure of the activation of the M2 receptor.
The test cell used is a recombinant CHO-DUKX cell line which has been stably transfected with cDNA coding for the human M2 receptor and with cDNA coding for both GIRK1/4 subunits (CHO-DUKX-M2-GIRK). The transmembrane potential, or the relative changes in the transmembrane potential as a function of substance addition or M2 activation, is determined by means of a voltage-sensitive dye (FLIPR Membrane Potential Assay Kit Blue, Molecular Devices #R8034) and the measurement of cell fluorescence using a proprietary fluorescence imaging instrument.
In accordance with the desired test concentrations, the substances were pre-diluted in loading buffer (see above).
The sowing medium consisted of MEM alpha medium (supplemented with 5% PCS, 2% Glutamax, no genticin).
For the particular measurement, the medium was removed and the cells were laden with the volt-age-sensitive dye for at least 6 min at room temperature (30 μl of loading buffer per 384-well). This was followed, in a first measurement, by the determination of the resting transmembrane potential for a period of 5 sec in 1 sec increments. Thereafter, 10 μl in each case of the test substances diluted in loading buffer are added, followed by a second measurement to determine the transmembrane potential for a period of 50 sec in 1 sec increments.
Finally, the cells are admixed with 10 μl of agonist solution (acetylcholine dissolved in loading buffer). In contrast to the EC50 determination of the test substances (see B-1.1), however, this is not done using one acetylcholine concentration; instead, every concentration of the test substance is combined with an acetylcholine 8-point dose-response curve. […] The M2-mediated GIRK1/4 activation or hyperpolarization is then monitored in a third measurement over a period of 60 sec in 1 sec increments. The shift in the acetylcholine dose-response curve in the presence of increasing concentrations of the test substance is analysed and quantified by means of GraphPad PRISM (Allosteric EC50 shift). […] Positive cooperativity is the hallmark of a positive allosteric modulator. […] The greater the magnitude of the α value, the greater the extent of cooperativity between orthosteric and allosteric.

On human M2 receptor [1], `CC[C@H](NC(=O)c1cn(-c2c(F)cc(F)cc2F)c2nc(N3CC[C@H](O)C3)c(F)cc2c1=O)C(F)(F)F` [Example 115, 6-Fluoro-7-[(3S)-3-hydroxypyrrolidin-1-yl]-4-oxo-N-[(2S)-1,1,1-trifluorobutan-2-yl]-1-(2,4,6-trifluorophenyl)-1,4-dihydro-1,8-naphthyridine-3-carboxamide] came in with an EC50 of 6.65 nM and an Emax of 98%. The “Cooperativity (alpha factor)” value on human M2 receptor [2] is on record as 53.

On human M2 receptor [1], `CC1(O)CN(c2nc3c(cc2F)c(=O)c(C(=O)N[C@@H](C2CC2)C(F)(F)F)cn3-c2c(F)cc(F)cc2F)C1` [Example 53, N-[(1S)-1-Cyclopropyl-2,2,2-trifluoroethyl]-6-fluoro-7-(3-hydroxy-3-methylazetidin-1-yl)-4-oxo-1-(2,4,6-trifluorophenyl)-1,4-dihydro-1,8-naphthyridine-3-carboxamide] showed an EC50 of 16 nM and an Emax of 100%. Further, at human M2 receptor [2], the “Cooperativity (alpha factor)” value is on record as 30.

Take `CC(NC(=O)c1cn(-c2c(F)cc(F)cc2F)c2nc(N3CCC[C@@H]3CO)c(F)cc2c1=O)C(F)(F)C(F)(F)F` (single isomer, unassigned) [Example 184]: at human M2 receptor [1], the EC50 is 4.5 nM and the Emax was found to be 90%. On human M2 receptor [2], the “Cooperativity (alpha factor)” value came out at 24.

As to `CC(NC(=O)c1cn(-c2c(F)cc(F)cc2F)c2nc(N3CC[C@H](O)C3)c(F)cc2c1=O)C(F)(F)C(F)(F)F` (mixture of isomers) [Example 112, 6-Fluoro-7-[(3S)-3-hydroxypyrrolidin-1-yl]-4-oxo-N-[3,3,4,4,4-pentafluorobutan-2-yl]-1-(2,4,6-trifluorophenyl)-1,4-dihydro-1,8-naphthyridine-3-carboxamide], on human M2 receptor [1], the response was half-maximal at 4.25 nM (EC50) and the Emax was 100%. The “Cooperativity (alpha factor)” value at human M2 receptor [2] turned out to be 33.

On human M2 receptor [1], `O=C(NC(C(F)(F)F)C(F)(F)F)c1cn(-c2c(F)cc(F)cc2F)c2nc(N3CC(CO)(CO)C3)c(F)cc2c1=O` [Example 230, 7-[3,3-bis(hydroxymethyl)azetidin-1-yl]-6-fluoro-N-(1,1,1,3,3,3-hexafluoropropan-2-yl)-4-oxo-1-(2,4,6-trifluorophenyl)-1,4-dihydro-1,8-naphthyridine-3-carboxamide] showed an EC50 of 9.7 nM and an Emax of 97%. In addition, the “Cooperativity (alpha factor)” value on human M2 receptor [2] was 36.

On human M2 receptor [1], `O=C(N[C@@H](C1CC1)C(F)(F)F)c1cn(-c2c(F)cc(F)cc2F)c2nc(N3CC(O)C3)c(F)cc2c1=O` [Example 54, N-[(1S)-1-Cyclopropyl-2,2,2-trifluoroethyl]-6-fluoro-7-(3-hydroxyazetidin-1-yl)-4-oxo-1-(2,4,6-trifluorophenyl)-1,4-dihydro-1,8-naphthyridine-3-carboxamide] showed an EC50 of 25 nM and an Emax of 100%. For the same compound, the “Cooperativity (alpha factor)” value on human M2 receptor [2] turned out to be 30.

At human M2 receptor [1], `CC(C)C(NC(=O)c1cn(-c2c(F)cc(F)cc2F)c2nc(N3C[C@@H](O)[C@H](O)C3)c(F)cc2c1=O)C(C)C` [Example 24, 7-[(3R,4R)-3,4-dihydroxypyrrolidin-1-yl]-N-(2,4-dimethylpentan-3-yl)-6-fluoro-4-oxo-1-(2,4,6-trifluorophenyl)-1,4-dihydro-1,8-naphthyridine-3-carboxamide] came in with a concentration for a half-maximal effect (EC50) of 1.35 nM and an Emax of 100%. Moreover, the “Cooperativity (alpha factor)” value on human M2 receptor [2] is 57.

As to `O=C(NC(C1CC1)C(F)(F)C(F)(F)F)c1cn(-c2c(F)cc(F)cc2F)c2nc(N3CC(CO)(CO)C3)c(F)cc2c1=O` (single isomer, unassigned) [Example 207, 7-[3,3-bis(hydroxymethyl)azetidin-1-yl]-N-[1-cyclopropyl-2,2,3,3,3-pentafluoropropyl]-6-fluoro-4-oxo-1-(2,4,6-trifluorophenyl)-1,4-dihydro-1,8-naphthyridine-3-carboxamide], at human M2 receptor [1], the midpoint of the response, the EC50, lay at 3.3 nM and the Efficiency came out at 100%. The “Cooperativity (alpha factor)” value on human M2 receptor [2] was 24.

At human M2 receptor [1], `CC(C)C[C@H](NC(=O)c1cn(-c2c(F)cc(F)cc2F)c2nc(N3CC(O)[C@H](O)C3)c(F)cc2c1=O)C(F)(F)F` (stereo in doubt) [Example 11, 7-[(3R,4S)-3,4-dihydroxypyrrolidin-1-yl]-6-fluoro-4-oxo-N-[(2S)-1,1,1-trifluoro-4-methylpentan-2-yl]-1-(2,4,6-trifluorophenyl)-1,4-dihydro-1,8-naphthyridine-3-carboxamide] came in with an EC50 of 5.8 nM and an Emax of 100%. In addition, the “Cooperativity (alpha factor)” value at human M2 receptor [2] worked out at 60.

Turning to `CC(NC(=O)c1cn(-c2c(F)cc(F)cc2F)c2nc(N3CC(CO)(CO)C3)c(F)cc2c1=O)C(F)(F)C(F)(F)F` (racemic) [Example 169, 7-[3,3-Bis(hydroxymethyl)azetidin-1-yl]-6-fluoro-4-oxo-N-[3,3,4,4,4-pentafluorobutan-2-yl]-1-(2,4,6-trifluorophenyl)-1,4-dihydro-1,8-naphthyridine-3-carboxamide], on human M2 receptor [1], the EC50 amounted to 3.8 nM and the Efficiency stood at 99%. For the same compound, the “Cooperativity (alpha factor)” value on human M2 receptor [2] is 34.

On to `CC(NC(=O)c1cn(-c2c(F)cc(F)cc2F)c2nc(N3CCC(O)C(O)C3)c(F)cc2c1=O)C(F)(F)C(F)(F)F` (single isomer, unassigned) [Example 182, 7-(3,4-Dihydroxypiperidin-1-yl)-6-fluoro-4-oxo-N-(3,3,4,4,4-pentafluorobutan-2-yl)-1-(2,4,6-trifluorophenyl)-1,4-dihydro-1,8-naphthyridine-3-carboxamide], for which, on human M2 receptor [1], the EC50 stood at 8.8 nM and the Emax turned out to be 100%. For the same compound, the “Cooperativity (alpha factor)” value on human M2 receptor [2] is 27.

On human M2 receptor [1], `CC[C@H](NC(=O)c1cn(-c2c(F)cc(F)cc2Cl)c2nc(N3C[C@@H](O)[C@H](O)C3)c(F)cc2c1=O)C(F)(F)F` (single isomer, unassigned) [Example 48] yielded an EC50 of 1.8 nM and an Efficiency of 78%. Moreover, at human M2 receptor [2], the “Cooperativity (alpha factor)” value is on record as 42.

On human M2 receptor [1], `O=C(N[C@@H](C1CC1)C(F)(F)F)c1cn(-c2c(F)cc(F)cc2F)c2nc(N3C[C@@H](O)[C@H](O)C3)c(Br)cc2c1=O` [Example 160, 6-Bromo-N-[(1S)-1-cyclopropyl-2,2,2-trifluoroethyl]-7-[(3R,4R)-3,4-dihydroxypyrrolidin-1-yl]-4-oxo-1-(2,4,6-trifluorophenyl)-1,4-dihydro-1,8-naphthyridine-3-carboxamide] displayed an EC50 of 7.3 nM and an Emax of 100%. In addition, the “Cooperativity (alpha factor)” value at human M2 receptor [2] amounted to 38.

At human M2 receptor [1], `CC(NC(=O)c1cn(-c2c(F)cc(F)cc2F)c2nc(N3C[C@@H](O)[C@@H](O)C3)c(F)cc2c1=O)C(F)(F)C(F)(F)F` (single isomer, unassigned) [Example 94] returned an Emax of 100%. The “Cooperativity (alpha factor)” value on human M2 receptor [2] is 34.

Turning to `CCC(NC(=O)c1cn(-c2c(F)cc(F)cc2F)c2nc(N3CC(CO)(CO)C3)c(F)cc2c1=O)C(F)(F)C(F)(F)F` (racemic) [Example 173, 7-[3,3-Bis(hydroxymethyl)azetidin-1-yl]-6-fluoro-4-oxo-N-[1,1,1,2,2-pentafluoropentan-3-yl]-1-(2,4,6-trifluorophenyl)-1,4-dihydro-1,8-naphthyridine-3-carboxamide], on human M2 receptor [1], the EC50 was determined as 2.5 nM and the Efficiency worked out at 99%. Moreover, the “Cooperativity (alpha factor)” value at human M2 receptor [2] worked out at 39.
